# From patent publication US4604239A, “Antibiotics” (Eli Lilly and Company, priority 1985, dated 1986)
# “And” between values parts separate entries of the source, which are not always exact repeats. Identical values can stand only once. Like-named read-outs stand apart in the source and are kept apart here.
# Assays:
# [1] = electrometric titration; assay type: physicochemical; conditions: electrometric titration in 66% dimethylformamide in water
# Source text: Antibiotic A41030 factor A is a white, crystalline solid.
# [2] = test system: Clostridium perfringens; assay type: cell-based; conditions: Clostridium perfringens 81; Table 14
# [3] = test system: Hemophilus influenzae; experiment: agar-dilution MIC; assay type: cell-based; conditions: Table 17
# [4] = test system: Peptococcus prevoti; experiment: agar-dilution MIC; assay type: cell-based; conditions: Peptococcus prevoti 1281; Table 14
# [5] = solubility; assay type: physicochemical
# [6] = test system: Eubacterium aerofaciens; experiment: agar-dilution MIC; assay type: cell-based; conditions: Eubacterium aerofaciens 1235; Table 14
# [7] = test system: Peptostreptococcus intermedius; experiment: agar-dilution MIC; assay type: cell-based; conditions: Peptostreptococcus intermedius 1264; Table 14
# [8] = test system: Peptostreptococcus anaerobius; experiment: agar-dilution MIC; assay type: cell-based; conditions: Peptostreptococcus anaerobius 1428; Table 14
# [9] = test system: Fusobacterium symbiosum; experiment: agar-dilution MIC; assay type: cell-based; conditions: Fusobacterium symbiosum 1470; Table 14
# [10] = test system: Bacteroides corrodens; experiment: agar-dilution MIC; assay type: cell-based; conditions: Bacteroides corrodens 1874; Table 14
# [11] = test system: Bacteroides vulgatis; experiment: agar-dilution MIC; assay type: cell-based; conditions: Bacteroides vulgatis 1211; Table 14
# [12] = test system: Bacteroides thetaiotaomicron; assay type: cell-based; conditions: Bacteroides thetaiotaomicron 1438; Table 14
# Source text: (§1) The agar-dilution procedure described by the International Collaborative study (ICS) group was used to determine the minimum inhibitory concentrations (MIC's).
# [13] = test system: Staphylococcus aureus; experiment: agar-dilution MIC; assay type: cell-based
# [14] = test system: Propionibacterium acnes; experiment: agar-dilution MIC; assay type: cell-based; conditions: Propionibacterium acnes 79; Table 14
# Source text: Antibiotic A41030 factors A, B and C have also been tested and found to be active against a genus of anaerobic bacteria identified as Propionibacterium acnes.
# [15] = test system: Bacteroides melaninogenicus; experiment: agar-dilution MIC; assay type: cell-based; conditions: Table 14
# [16] = test system: Streptococcus sp. (Group D); experiment: agar-dilution MIC; assay type: cell-based; conditions: Table 17
# Source text: as §1
# [17] = test system: Streptococcus pneumoniae; experiment: agar-dilution MIC; assay type: cell-based; conditions: Streptococcus pneumoniae Park I; Table 17
# Source text: as §1
# [18] = test system: Streptococcus pyogenes; experiment: agar-dilution MIC; assay type: cell-based; conditions: Streptococcus pyogenes C203; Table 17
# Source text: as §1
# [19] = test system: Bacteroides fragilis; experiment: agar-dilution MIC; assay type: cell-based; conditions: Table 14
# Source text: as §1
# [20] = test system: Staphylococcus epidermidis; experiment: agar-dilution MIC; assay type: cell-based; conditions: Table 17
# Source text: as §1
# [21] = test system: Escherichia coli; experiment: agar-dilution MIC; assay type: cell-based; conditions: Escherichia coli TEM; Table 17
# Source text: The results after reading the which follows.
# [22] = test system: Clostridium septicum; experiment: agar-dilution MIC; assay type: cell-based; conditions: Clostridium septicum 1128; Table 14
# [23] = test system: Clostridium difficile; assay type: cell-based
# [24] = test system: Staph. aureus; experiment: experimental bacterial infection in mice; assay type: in vivo; conditions: two doses subcutaneously
# Procedure: All of the A41030 factors tested have shown in vivo antimicrobial activity against experimental bacterial infections. When two doses of test compound were administered subcutaneously to mice in illustrative infections, the activity observed is measured as an ED50 value [effective dose in mg./kg. to protect fifty percent of the test animals: See Warren Wick, et al., J. Bacteriol. 81, 233-235 (1961)].
# [25] = test system: Fusobacterium necrophorum; experiment: agar-dilution MIC; assay type: cell-based; conditions: Fusobacterium necrophorum 6054A; Table 14
# [26] = test system: Peptococcus asaccharolyticus; experiment: agar-dilution MIC; assay type: cell-based; conditions: Peptococcus asaccharolyticus 1302; Table 14
# Procedure: The MIC values were determined by the agar-dilution method, and are recorded in Table 15, which follows.
# [27] = Staphylococcus aureus S13E, Table 17
# [28] = Bacteroides melaninogenicus 2736
# [29] = Staphylococcus epidermidis EPI1
# [30] = Clostridium difficile 78, Table 16
# [31] = Clostridium difficile 107B, Table 16
# [32] = Clostridium difficile 111F, Table 16
# [33] = Clostridium difficile 1153, Table 16
# [34] = Clostridium difficile 2634, Table 16
# [35] = Clostridium difficile 3424-5B, Table 16
# [36] = Clostridium difficile 3816, Table 16
# [37] = Clostridium difficile 6890, Table 16
# [38] = Clostridium difficile 8484, Table 16
# [39] = Clostridium difficile A-194, Table 16
# [40] = Clostridium difficile A-195, Table 16
# [41] = Clostridium difficile A-196, Table 16
# [42] = Clostridium difficile A-279, Table 16
# [43] = Clostridium difficile A-280, Table 16
# [44] = Clostridium difficile A-281, Table 16
# [45] = Clostridium difficile WAL-2112, Table 16
# [46] = Clostridium difficile WAL-3657, Table 16
# [47] = Clostridium difficile WAL-4268, Table 16
substance,measurement,setting,value
A41030 factor D,possibly additional pKa's,[1],> 10
same,MIC,[2],0.5 µg/mL
same,MIC,[3]; Haemophilus influenzae 76,8 µg/mL
same,MIC,[3]; Haemophilus influenzae C.L.,8 µg/mL
same,MIC,[4],0.25 µg/mL
same,solubility (solvents),[5],soluble in the same solvents as factor A
same,MIC,[6],0.5 µg/mL
same,MIC,[7],1.0 µg/mL
same,MIC,[8],0.5 µg/mL
same,MIC,[9],0.5 µg/mL
same,MIC,[10],32 µg/mL
same,MIC,[11],32 µg/mL
same,MIC,[12],32 µg/mL
same,MIC,[13]; [27],0.25 µg/mL
same,MIC,[14],0.25 µg/mL
same,MIC,[15]; Bacteroides melaninogenicus 1856/28,> 64 µg/mL
same,MIC,[15]; [28],0.5 µg/mL
same,MIC,[16]; Streptococcus sp. Group D 9960,1 µg/mL
same,MIC,[16]; Streptococcus sp. Group D X66,1 µg/mL
same,MIC,[17],0.5 µg/mL
same,MIC,[18],0.5 µg/mL
same,MIC,[19]; Bacteroides fragilis 111,32 µg/mL
same,MIC,[19]; Bacteroides fragilis 1877,32 µg/mL
same,MIC,[19]; Bacteroides fragilis 1936B,32 µg/mL
same,MIC,[20]; [29],0.25 µg/mL
same,MIC,[20]; Staphylococcus epidermidis EPI2,1 µg/mL
same,MIC,[21],64 µg/mL
same,MIC,[22],0.25 µg/mL
same,MIC,[23]; [30],≤ 0.25 µg/mL
same,MIC,[23]; [31],≤ 0.25 µg/mL
same,MIC,[23]; [32],≤ 0.25 µg/mL
same,MIC,[23]; [33],1.0 µg/mL
same,MIC,[23]; [34],0.5 µg/mL
same,MIC,[23]; [35],0.5 µg/mL
same,MIC,[23]; [36],0.5 µg/mL
same,MIC,[23]; [37],0.5 µg/mL
same,MIC,[23]; [38],≤ 0.25 µg/mL
same,MIC,[23]; [39],≤ 0.25 µg/mL
same,MIC,[23]; [40],≤ 0.25 µg/mL
same,MIC,[23]; [41],0.5 µg/mL
same,MIC,[23]; [42],≤ 0.25 µg/mL
same,MIC,[23]; [43],≤ 0.25 µg/mL
same,MIC,[23]; [44],0.5 µg/mL
same,MIC,[23]; [45],≤ 0.25 µg/mL
same,MIC,[23]; [46],≤ 0.25 µg/mL
same,MIC,[23]; [47],≤ 0.25 µg/mL
A41030 factor E,possibly additional pKa's,[1],> 10
same,MIC,[2],1.0 µg/mL
same,MIC,[3]; Haemophilus influenzae 76,8 µg/mL
same,MIC,[3]; Haemophilus influenzae C.L.,8 µg/mL
same,MIC,[4],32 µg/mL
same,solubility (solvents),[5],soluble in the same solvents as factor A
same,MIC,[6],0.5 µg/mL
same,MIC,[7],32 µg/mL
same,MIC,[8],32 µg/mL
same,MIC,[9],1.0 µg/mL
same,MIC,[10],64 µg/mL
same,MIC,[11],32 µg/mL
same,MIC,[12],64 µg/mL
same,MIC,[13]; [27],0.25 µg/mL
same,MIC,[13]; in µg/mL,0.125 and 0.25
same,ED50,[24],< 0.31 mg/kg
same,MIC,[14],0.5 µg/mL
same,MIC,[15]; [28],32 µg/mL
same,MIC,[16]; Streptococcus sp. Group D 9960,1 µg/mL
same,MIC,[16]; Streptococcus sp. Group D X66,1 µg/mL
same,MIC,[17],0.25 µg/mL
same,MIC,[18],0.25 µg/mL
same,MIC,[19]; Bacteroides fragilis 111,64 µg/mL
same,MIC,[19]; Bacteroides fragilis 1877,32 µg/mL
same,MIC,[19]; Bacteroides fragilis 1936B,64 µg/mL
same,MIC,[20]; [29],0.25 µg/mL
same,MIC,[25],0.5 µg/mL
same,MIC,[22],0.5 µg/mL
same,MIC,[23]; [30],0.5 µg/mL
same,MIC,[23]; [31],0.5 µg/mL
same,MIC,[23]; [32],0.5 µg/mL
same,MIC,[23]; [33],1.0 µg/mL
same,MIC,[23]; [34],1.0 µg/mL
same,MIC,"[23]; Clostridium difficile 2994, Table 14",0.5 µg/mL
same,MIC,[23]; [35],0.5 µg/mL
same,MIC,[23]; [36],0.5 µg/mL
same,MIC,"[23]; Clostridium difficile 3950D, Table 16",0.5 µg/mL
same,MIC,[23]; [37],0.5 µg/mL
same,MIC,[23]; [38],0.5 µg/mL
same,MIC,[23]; [39],0.5 µg/mL
same,MIC,[23]; [40],0.5 µg/mL
same,MIC,[23]; [41],1.0 µg/mL
same,MIC,[23]; [42],0.5 µg/mL
same,MIC,[23]; [43],0.5 µg/mL
same,MIC,[23]; [44],1.0 µg/mL
same,MIC,[23]; [45],0.5 µg/mL
same,MIC,[23]; [46],0.5 µg/mL
same,MIC,[23]; [47],0.5 µg/mL
same,MIC,[26],≤ 0.25 µg/mL
